Columns and labels:
[1] = Unbound clearance in rat plasma at iv dosed for 4 to 24 hrs by LC-MS/MS analysis; assay type: ADME, organism-based; conditions: in vivo, time 4-24 hrs
[2] = Unbound brain-to-plasma concentration ratio in rat at iv dosed for 4 to 24 hrs by LC-MS/MS analysis; assay type: ADME, organism-based; conditions: time 4-24 hrs; for Kp uu: read-out: K(p,uu,brain)
[3] = Clearance in rat plasma at iv dosed for 4 to 24 hrs by LC-MS/MS analysis; assay type: ADME, organism-based; conditions: time 4-24 hrs
[4] = Intrinsic clearance in human Hepatocyte; assay type: ADME, cell-based; conditions: hepatocytes, read-out: CLH
[5] = Tmax in mouse at po administration; assay type: ADME, organism-based; conditions: in vivo
[6] = Oral bioavailability in mouse; assay type: ADME, organism-based; conditions: in vivo
[7] = Intrinsic clearance in human liver microsomes; assay type: ADME, Microsome; conditions: read-out: CLH
[8] = AUCinfinity in Cynomolgus monkey at iv administration; assay type: ADME, organism-based, Macaca fascicularis; conditions: in vivo
[9] = Tmax in po dosed dog; assay type: ADME, organism-based, Canis lupus familiaris; conditions: in vivo
[10] = Oral bioavailability in Cynomolgus monkey; assay type: ADME, organism-based, Macaca fascicularis; conditions: in vivo
[11] = Unbound clearance in iv dosed dog; assay type: ADME, organism-based, Canis lupus familiaris; conditions: in vivo
[12] = Unbound clearance in Cynomolgus monkey at iv administration; assay type: ADME, organism-based, Macaca fascicularis; conditions: in vivo
[13] = Tmax in Cynomolgus monkey at po administration; assay type: ADME, organism-based, Macaca fascicularis; conditions: in vivo
[14] = Clearance in Cynomolgus monkey at iv administration; assay type: ADME, organism-based, Macaca fascicularis; conditions: in vivo
[15] = Half life in mouse at iv administration; assay type: ADME, organism-based; conditions: in vivo
[16] = Volume of distribution at steady state in iv dosed dog; assay type: ADME, organism-based, Canis lupus familiaris; conditions: in vivo, read-out: Vdss
[17] = Volume of distribution at steady state in mouse at iv administration; assay type: ADME, organism-based; conditions: in vivo, read-out: Vdss
[18] = Oral bioavailability in rat; assay type: ADME, organism-based; conditions: in vivo
[19] = Unbound clearance in mouse at iv administration; assay type: ADME, organism-based; conditions: in vivo
[20] = AUCinfinity in mouse at iv administration; assay type: ADME, organism-based; conditions: in vivo
[21] = Half life in rat at iv administration; assay type: ADME, organism-based; conditions: in vivo
[22] = Clearance in iv dosed dog; assay type: ADME, organism-based, Canis lupus familiaris; conditions: in vivo
[23] = Unbound clearance in rat at iv administration; assay type: ADME, organism-based; conditions: in vivo
[24] = AUCinfinity in rat at iv administration; assay type: ADME, organism-based; conditions: in vivo
[25] = Volume of distribution at steady state in rat at iv administration; assay type: ADME, organism-based; conditions: in vivo, read-out: Vdss
[26] = AUCinfinity in iv dosed dog; assay type: ADME, organism-based, Canis lupus familiaris; conditions: in vivo
[27] = Clearance in rat at iv administration; assay type: ADME, organism-based; conditions: in vivo
[28] = Tmax in rat at po administration; assay type: ADME, organism-based; conditions: in vivo
[29] = Oral bioavailability in dog; assay type: ADME, organism-based, Canis lupus familiaris; conditions: in vivo
[30] = Half life in iv dosed dog; assay type: ADME, organism-based, Canis lupus familiaris; conditions: in vivo
[31] = Volume of distribution at steady state in Cynomolgus monkey at iv administration; assay type: ADME, organism-based, Macaca fascicularis; conditions: in vivo, read-out: Vdss
[32] = Half life in Cynomolgus monkey at iv administration; assay type: ADME, organism-based, Macaca fascicularis; conditions: in vivo

**Q.** With `CC(C)Oc1nc2nc(C34COC(CF)(C3)C4)cn2cc1C(=O)Nc1cccn(C2CC2)c1=O` as the molecule, how does the CL free [1] read?
**A.** 51 mL/min/kg

**Q.** And the Kp uu [2]?
**A.** 0.2

**Q.** And the clearance [3]?
**A.** 9.6 mL/min/kg

**Q.** For `CC(C)Oc1nc2nc(C34COC(C)(C3)C4)cn2cc1C(=O)Nc1cccn([C@H]2C[C@H]2C)c1=O`, which Kp uu [2] is on record?
**A.** 0.4

**Q.** For `COC[C@@]12CC[C@@](c3cn4cc(C(=O)Nc5cccn(C6CC6)c5=O)c(OC(C)C)nc4n3)(CO1)C2`, which CL free [1] is on record?
**A.** 281 mL/min/kg

**Q.** And the Kp uu [2]?
**A.** 0.2

**Q.** And the clearance [3]?
**A.** 17 mL/min/kg

**Q.** Which CL free [1] does the source give for `COC[C@@]12CC[C@@](c3cn4cc(C(=O)Nc5cccn([C@H]6C[C@H]6F)c5=O)c(OC(C)C)nc4n3)(CO1)C2` here?
**A.** 312 mL/min/kg

**Q.** What about the Kp uu [2] of the same molecule?
**A.** 0.1

**Q.** What about the clearance [3] of the same molecule?
**A.** 33 mL/min/kg

**Q.** Which results are given for `CC(C)Oc1nc2nc(C34COC(C3)C4)cn2cc1C(=O)Nc1cccn(C2CC2)c1=O`?
**A.** CL free [1]: 88 mL/min/kg; Kp uu [2]: 0.4; clearance [3]: 8 mL/min/kg

**Q.** For `CC(C)Oc1nc2nc([C@@]34CC[C@@](C)(C3)OC4)cn2cc1C(=O)Nc1cccn(C2CC2)c1=O` (single isomer, unassigned), which CL free [1] is on record?
**A.** 310 mL/min/kg

**Q.** And the Kp uu [2]?
**A.** 0.3

**Q.** And the clearance [3]?
**A.** 36 mL/min/kg

**Q.** With `CC(C)Oc1nc2nc(C34CCC(C)(C3)OC4)cn2cc1C(=O)Nc1cccn([C@H]2C[C@H]2F)c1=O` (single isomer, unassigned) as the molecule, how does the CL free [1] read?
**A.** 306 mL/min/kg

**Q.** And the Kp uu [2]?
**A.** 0.2

**Q.** And the clearance [3]?
**A.** 12.7 mL/min/kg

**Q.** Which Kp uu [2] does the source give for `CC(C)Oc1nc2nc(C34COC(C)(C3)C4)cn2cc1C(=O)Nc1cccn([C@H]2C[C@H]2F)c1=O` (single isomer, unassigned) here?
**A.** 0.3

**Q.** With `CC(C)Oc1nc2nc(C34COC(C)(C3)C4)cn2cc1C(=O)Nc1cccn(C2CC2)c1=O` as the molecule, how does the CLint scaled [4] read?
**A.** 5.1 mL/min/kg

**Q.** What about the Tmax [5] of the same molecule?
**A.** 0.25 h

**Q.** And the bioavailability [6]?
**A.** 92%

**Q.** What about the CLint scaled [7] of the same molecule?
**A.** < 5 mL/min/kg

**Q.** And the AUC(0-inf) [8]?
**A.** 1130 ng·h/mL

**Q.** And the Tmax [9]?
**A.** 0.6 h

**Q.** What about the bioavailability [10] of the same molecule?
**A.** 61%

**Q.** And the CL free [11]?
**A.** 76 mL/min/kg

**Q.** And the CL free [12]?
**A.** 98 mL/min/kg

**Q.** What about the Tmax [13] of the same molecule?
**A.** 1.2 h

**Q.** And the clearance [14]?
**A.** 15.1 mL/min/kg

**Q.** What about the half-life [15] of the same molecule?
**A.** 1.6 h

**Q.** And the Vd [16]?
**A.** 1.4 L/kg

**Q.** And the Vd [17]?
**A.** 1.5 L/kg

**Q.** And the bioavailability [18]?
**A.** 128%

**Q.** What about the CL free [19] of the same molecule?
**A.** 240 mL/min/kg

**Q.** What about the Kp uu [2] of the same molecule?
**A.** 0.7

**Q.** What about the AUC(0-inf) [20] of the same molecule?
**A.** 1020 ng·h/mL

**Q.** And the half-life [21]?
**A.** 2.5 h

**Q.** And the clearance [22]?
**A.** 12.7 mL/min/kg

**Q.** And the CL free [23]?
**A.** 171 mL/min/kg

**Q.** What about the AUC(0-inf) [24] of the same molecule?
**A.** 1040 ng·h/mL

**Q.** And the Vd [25]?
**A.** 2.9 L/kg

**Q.** What about the AUC(0-inf) [26] of the same molecule?
**A.** 1400 ng·h/mL

**Q.** And the clearance [27]?
**A.** 14.2 mL/min/kg

**Q.** And the Tmax [28]?
**A.** 0.25 h

**Q.** What about the bioavailability [29] of the same molecule?
**A.** 89%

**Q.** And the half-life [30]?
**A.** 1.4 h

**Q.** What about the Vd [31] of the same molecule?
**A.** 0.9 L/kg

**Q.** What about the half-life [32] of the same molecule?
**A.** 0.8 h

**Q.** For `Cc1cnc2c(NC(=O)c3cn4cc(C56COC(C)(C5)C6)nc4nc3OC(C)C)cnn2c1`, which “K(p,uu,brain)” value ([2]; iv) is on record?
**A.** 0.3

**Q.** For `COCC12CC(c3cn4cc(C(=O)Nc5cccn(C6CC6)c5=O)c(OC(C)C)nc4n3)(CO1)C2`, which CL free [1] is on record?
**A.** 170 mL/min/kg

**Q.** And the Kp uu [2]?
**A.** 0.5

**Q.** What about the clearance [3] of the same molecule?
**A.** 20.8 mL/min/kg

Reference: ChEMBL document CHEMBL5506029 (J Med Chem, 2024)
